Legend:
TvVip1 [1] = target: T1, TvVip1 (Trichoderma virens, UniProt G9MQB8); assay: competition: deu-5'-dA formation by LC-MS, Cheng-Prusoff from IC50 and Km; assay type: biochemical; details: calculated from average IC50 and Km; competitive assumption; 1 mM deuUTP, 1 mM SAM, 10 μM enzyme, dithionite, HEPES pH 7.5
TvVip2 [2] = target: T2, TvVip2 (Trichoderma virens, UniProt G9N0G3); assay: X-ray crystal structure, […] Å; assay type: binding; details: active site, anaerobic
T2 sequence (G9N0G3 32-328): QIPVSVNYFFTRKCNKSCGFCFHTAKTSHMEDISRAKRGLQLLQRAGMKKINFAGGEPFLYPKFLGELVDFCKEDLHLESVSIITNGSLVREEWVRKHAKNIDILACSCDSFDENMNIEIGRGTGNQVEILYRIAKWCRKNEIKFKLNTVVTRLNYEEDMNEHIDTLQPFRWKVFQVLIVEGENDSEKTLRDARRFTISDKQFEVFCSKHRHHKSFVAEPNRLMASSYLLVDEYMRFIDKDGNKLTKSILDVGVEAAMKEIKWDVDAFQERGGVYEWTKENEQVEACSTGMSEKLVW

TvVip1 [3] = target: T1, TvVip1; assay: competition: loss of deu-5'-dA formation from […] deuterated NTP, LC-MS; assay type: biochemical
TvVip1 CTP-swap V2 [4] = target: T3, TvVip1 CTP-swap V2 (Trichoderma virens, UniProt Z9USF9BXN2); assay: competition: deu-5'-dA formation by LC-MS, Cheng-Prusoff from IC50 and Km; assay type: biochemical; details: calculated from average IC50 and Km; competitive assumption; 1 mM deuUTP, 1 mM SAM, 10 μM enzyme, dithionite, HEPES pH 7.5
T3 sequence (Z9USF9BXN2 24-317): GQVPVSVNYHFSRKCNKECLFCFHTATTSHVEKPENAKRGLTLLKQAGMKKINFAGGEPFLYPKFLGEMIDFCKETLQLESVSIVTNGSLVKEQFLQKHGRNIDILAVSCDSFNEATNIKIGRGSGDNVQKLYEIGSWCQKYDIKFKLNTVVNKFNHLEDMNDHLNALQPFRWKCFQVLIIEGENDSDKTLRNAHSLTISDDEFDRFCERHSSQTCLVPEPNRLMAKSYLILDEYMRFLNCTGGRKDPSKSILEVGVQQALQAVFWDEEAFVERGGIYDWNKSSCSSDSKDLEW

TvVip2 [5] = target: TvVip2 (Trichoderma virens, UniProt G9N0G3, F40H); assay: X-ray crystal structure, […] Å; assay type: binding; details: active site, anaerobic
TvVip1 CTP-swap V2 [6] = target: T3, TvVip1 CTP-swap V2; assay: competition: deu-5'-dA formation by LC-MS, Cheng-Prusoff from IC50 and Km; assay type: biochemical; details: calculated from average IC50 and Km; competitive assumption; 1 mM deuCTP, 1 mM SAM, 10 μM enzyme, dithionite, HEPES pH 7.5

Row | Ki (CTP) (TvVip1 [1]) [µM] | IC50 (TvVip1 [3]) [µM] | Ki (CTP) (TvVip1 CTP-swap V2 [4]) [µM] | Ki (UTP) (TvVip1 CTP-swap V2 [6]) [µM] | Compound | X-ray crystal structure, 1.5 Å (TvVip2 [2]; with SAM and [4Fe-4S]) | X-ray crystal structure, 2.3 Å (TvVip2 [5]; with SAM and [4Fe-4S]) | X-ray crystal structure, 1.5 Å (TvVip2 [2]; with CTP and [4Fe-4S]) | X-ray crystal structure, 2.3 Å (TvVip2 [5]; with CTP and [4Fe-4S])
1 | > 360 | > 4900 | 0.22 | – | Nc1ccn([C@@H]2O[C@H](COP(=O)(O)OP(=O)(O)OP(=O)(O)O)[C@@H](O)[C@H]2O)c(=O)n1 [CTP] | contain strong electron density representing the radical SAM [4Fe-4S] cluster, SAM, and CTP | TvVip2 F40H (PDB: 9DFU) in the presence of CTP and SAM | – | –
2 | – | – | – | – | C[S+](CC[C@H](N)C(=O)O)C[C@H]1O[C@@H](n2cnc3c(N)ncnc32)[C@H](O)[C@@H]1O (stereo partly drawn) [SAM] | – | – | contain strong electron density representing the radical SAM [4Fe-4S] cluster, SAM, and CTP | TvVip2 F40H (PDB: 9DFU) in the presence of CTP and SAM
3 | – | 19 ± 5.7 | – | > 59 | O=c1ccn([C@@H]2O[C@H](COP(=O)(O)OP(=O)(O)OP(=O)(O)O)[C@@H](O)[C@H]2O)c(=O)[nH]1 [UTP] | – | – | – | –
